In brackets after ≈: the same amount, converted by molar mass. Read-outs that look alike come from different tables or passages of the source.
Experiments:
human glucagon receptor = target: T1, human glucagon receptor (Homo sapiens, UniProt P47871); test: cAMP response (HTRF) of HEK-293 cells stably expressing human glucagon receptor; type: cell-based; details: formed cAMP
T1 construct: expressed in transfected cells
Method: (§1) cAMP content of cells was determined using a kit from Cisbio Corp. (cat. no. 62AM4PEC) based on HTRF (Homogenous Time Resolved Fluorescence). For preparation, cells were split into T175 culture flasks and grown overnight to near confluency in medium (DMEM/10% FBS). Medium was then removed and cells washed with PBS lacking calcium and magnesium, followed by proteinase treatment with accutase (Sigma-Aldrich cat. no. A6964). Detached cells were washed and resuspended in assay buffer (1×HBSS; 20 mM HEPES, 0.1% BSA, 2 mM IBMX) and cellular density determined. They were then diluted to 400000 cells/ml and 25 μl-aliquots dispensed into the wells of 96-well plates. For measurement, 25 μl of test compound in assay buffer was added to the wells, followed by incubation for 30 minutes at room temperature.

human GIP receptor = target: T2, human GIP receptor (Homo sapiens, UniProt P48546); test: cAMP response (HTRF) of HEK-293 cells stably expressing human GIP receptor; type: cell-based; details: Table 1; formed cAMP; read-out: EC50 hGIP R
T2 construct: expressed in transfected cells
T2 sequence (P48546 22-466): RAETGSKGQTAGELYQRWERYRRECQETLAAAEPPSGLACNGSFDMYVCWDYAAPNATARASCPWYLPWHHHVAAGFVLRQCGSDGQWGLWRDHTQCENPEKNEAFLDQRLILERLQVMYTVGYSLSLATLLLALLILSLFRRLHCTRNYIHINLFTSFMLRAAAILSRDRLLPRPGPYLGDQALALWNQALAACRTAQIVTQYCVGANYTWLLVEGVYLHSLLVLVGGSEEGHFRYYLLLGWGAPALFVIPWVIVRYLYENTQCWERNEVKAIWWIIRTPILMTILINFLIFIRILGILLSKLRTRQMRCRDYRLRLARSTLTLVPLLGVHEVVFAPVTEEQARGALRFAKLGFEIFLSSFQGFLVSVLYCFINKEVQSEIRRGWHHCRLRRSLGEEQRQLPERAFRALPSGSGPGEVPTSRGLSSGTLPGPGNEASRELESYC
Method: as §1

physchem = type: physicochemical
human GLP-1 receptor = target: T3, human GLP-1 receptor (Homo sapiens, UniProt P43220); test: cAMP response (HTRF) of HEK-293 cells stably expressing human GLP-1 receptor; type: cell-based; details: Table 6; formed cAMP; read-out: EC50 hGLP-1 R
T3 construct: expressed in transfected cells
T3 sequence (P43220 24-463): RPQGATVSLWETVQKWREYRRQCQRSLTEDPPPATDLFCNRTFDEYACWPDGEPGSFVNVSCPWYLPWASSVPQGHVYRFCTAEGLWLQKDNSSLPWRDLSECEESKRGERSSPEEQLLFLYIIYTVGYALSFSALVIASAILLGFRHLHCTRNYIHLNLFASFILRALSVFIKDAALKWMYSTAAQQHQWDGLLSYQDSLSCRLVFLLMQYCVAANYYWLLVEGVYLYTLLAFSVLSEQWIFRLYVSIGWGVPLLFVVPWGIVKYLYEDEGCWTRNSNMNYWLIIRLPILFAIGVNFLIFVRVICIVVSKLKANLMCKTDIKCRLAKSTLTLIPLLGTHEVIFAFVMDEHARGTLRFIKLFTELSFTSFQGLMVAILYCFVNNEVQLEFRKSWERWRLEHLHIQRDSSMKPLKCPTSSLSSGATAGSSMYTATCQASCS
Method: as §1

T1 sequence (P47871 26-477): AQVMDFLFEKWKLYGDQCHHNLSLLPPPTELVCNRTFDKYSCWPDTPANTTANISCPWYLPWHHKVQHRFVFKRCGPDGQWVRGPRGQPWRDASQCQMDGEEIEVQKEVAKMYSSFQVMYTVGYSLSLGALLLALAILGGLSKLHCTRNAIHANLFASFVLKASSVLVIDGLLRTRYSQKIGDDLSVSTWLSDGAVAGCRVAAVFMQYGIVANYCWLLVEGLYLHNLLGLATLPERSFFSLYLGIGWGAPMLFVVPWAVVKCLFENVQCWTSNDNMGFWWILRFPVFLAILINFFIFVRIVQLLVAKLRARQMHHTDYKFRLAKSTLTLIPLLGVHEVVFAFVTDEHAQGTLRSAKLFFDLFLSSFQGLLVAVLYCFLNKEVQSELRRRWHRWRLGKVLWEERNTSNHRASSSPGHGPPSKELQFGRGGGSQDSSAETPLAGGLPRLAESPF

Structure (SMILES) | EC50 (human glucagon receptor; Table 1, read-out: EC50 hGlucagon R) [nM] | EC50 (human GIP receptor) [nM] | solubility (physchem; pH 4.5) [µg/mL] | solubility (physchem; pH 7.4) [µg/mL] | EC50 (human glucagon receptor; Table 6, read-out: EC50 hGLUC R) [nM] | EC50 (human GLP-1 receptor) [nM] | solubility at 2 h (physchem; pH 4.5) [µg/mL] | solubility at 2 h (physchem; pH 7.4) [µg/mL]
CC[C@H](C)[C@H](NC(=O)[C@H](CO)NC(=O)[C@H](CC(C)C)NC(=O)[C@H](CC(=O)O)NC(=O)[C@H](CO)NC(=O)[C@@H](NC(=O)[C@H](Cc1ccccc1)NC(=O)[C@@H](NC(=O)CNC(=O)[C@H](CCC(=O)O)NC(=O)C(C)(C)NC(=O)[C@@H](N)Cc1ccc(O)cc1)[C@@H](C)O)[C@@H](C)O)C(=O)N[C@@H](CCC(N)=O)C(=O)N[C@@H](CC(C)C)C(=O)N[C@@H](CCC(=O)O)C(=O)N[C@@H](CCCCN)C(=O)N[C@@H](CCC(=O)O)C(=O)N[C@@H](C)C(=O)N[C@H](C(=O)N[C@@H](CCCNC(=N)N)C(=O)N[C@@H](CC(C)C)C(=O)N[C@@H](Cc1ccccc1)C(=O)N[C@H](C(=O)N[C@@H](CCC(=O)O)C(=O)N[C@@H](Cc1c[nH]c2ccccc12)C(=O)N[C@@H](CC(C)C)C(=O)N[C@@H](CCCCN)C(=O)N[C@@H](C)C(=O)NCC(=O)NCC(=O)N1CCC[C@H]1C(=O)N[C@@H](CO)C(=O)N[C@@H](CO)C(=O)NCC(=O)N[C@@H](C)C(=O)N1CCC[C@H]1C(=O)N1CCC[C@H]1C(=O)N1CCC[C@H]1C(=O)N[C@@H](CO)C(N)=O)[C@@H](C)CC)C(C)C [SEQ ID NO 10, Y-Aib-EGTFTSDLSIQLEKEAVRLFIEWLKAGGPSSGAPPPS-NH2] | > 10000 | 12.5 | 934 (≈ 224 µM) | > 1000 | – | – | – | –
CCCC[C@H](NC(=O)[C@H](CCC(N)=O)NC(=O)[C@@H](NC(=O)[C@H](CO)NC(=O)[C@H](CC(C)C)NC(=O)[C@H](CC(=O)O)NC(=O)[C@H](CO)NC(=O)[C@@H](NC(=O)[C@H](Cc1ccccc1)NC(=O)[C@@H](NC(=O)CNC(=O)[C@H](CCC(=O)O)NC(=O)C(C)(C)NC(=O)[C@@H](N)Cc1ccc(O)cc1)[C@@H](C)O)[C@@H](C)O)[C@@H](C)CC)C(=O)N[C@@H](CCC(=O)O)C(=O)N[C@@H](CCCCN)C(=O)N[C@@H](CCC(=O)O)C(=O)N[C@@H](C)C(=O)N[C@H](C(=O)N[C@@H](CCCNC(=N)N)C(=O)N[C@@H](CC(C)C)C(=O)N[C@@H](Cc1ccccc1)C(=O)N[C@H](C(=O)N[C@@H](CCC(=O)O)C(=O)N[C@@H](Cc1c[nH]c2ccccc12)C(=O)N[C@@H](CC(C)C)C(=O)N[C@@H](CCCCN)C(=O)N[C@@H](C)C(=O)NCC(=O)NCC(=O)N1CCC[C@H]1C(=O)N[C@@H](CO)C(=O)N[C@@H](CO)C(=O)NCC(=O)N[C@@H](C)C(=O)N1CCC[C@H]1C(=O)N1CCC[C@H]1C(=O)N1CCC[C@H]1C(=O)N[C@@H](CO)C(=O)N[C@@H](CCCCN)C(N)=O)[C@@H](C)CC)C(C)C [compound 12] | – | – | – | – | > 1000 | 0.0013 | 943 (≈ 220 µM) | 848 (≈ 198 µM)

Source: patent US9751926B2 (priority 2013, dated 2017)
